The target of the assay is phosphorylated active hERK2 enzyme (Homo sapiens (Human), UniProt P28482). To be noted: read-out: ERK2 IC50; IMAP-FP assay; 0.5 nM hERK2, 30 μM ATP; 10 point titration, 3 μM starting concentration.
Sequence of phosphorylated active hERK2 enzyme (P28482 whole entry): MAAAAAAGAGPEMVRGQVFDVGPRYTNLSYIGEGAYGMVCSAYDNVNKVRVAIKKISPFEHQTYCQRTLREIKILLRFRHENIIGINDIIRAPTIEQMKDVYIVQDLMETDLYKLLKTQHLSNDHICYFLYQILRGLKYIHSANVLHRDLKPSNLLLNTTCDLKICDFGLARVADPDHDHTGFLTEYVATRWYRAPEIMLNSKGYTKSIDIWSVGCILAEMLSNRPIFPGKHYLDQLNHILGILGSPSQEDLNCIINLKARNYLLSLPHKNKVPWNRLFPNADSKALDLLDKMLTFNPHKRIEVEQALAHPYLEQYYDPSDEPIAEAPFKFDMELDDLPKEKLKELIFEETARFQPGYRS

Procedure: Active Human ERK2 (hERK2) Activity Assay:
Activated ERK2 activity was determined in an IMAP-FP assay (Molecular Devices). […] The final reaction in each well of 25 μL consists of 0.5 nM hERK2, 900 nM unlabeled peptide, 80 nM labeled-peptide, and 30 μM ATP. Phosphorylation reactions were allowed to proceed for 60 minutes and were immediately quenched by the addition of 60 μL IMAP detection beads (1:1000 dilutions) in IMAP binding buffer (Molecular Devices) with 24 mM NaCl. Plates were read on EnVision reader after 60 minutes binding equilibration using Fluorescence Polarization protocol (Perkin Elmer).

For the compound `Cc1cc(-n2ncc3cc(NC(=O)NC4CCN(Cc5ccccc5C#N)C4)ncc32)ccn1` (stereo not shown) [Example 280, 1-[1-(2-cyanobenzyl)pyrrolidin-3-yl]-3-[1-(2-methylpyridin-4-yl)-1H-pyrazolo[3,4-c]pyridin-5-yl]urea], the IC50 was determined as 4.35 nM. In the case of `Cc1cc(-n2ncc3cc(NC(=O)NC4CCN(Cc5cccnc5Cl)C4)ncc32)ccn1` (stereo not shown) [Example 281, 1-{1-[(2-chloropyridin-3-yl)methyl]pyrrolidin-3-yl}-3-[1-(2-methylpyridin-4-yl)-1H-pyrazolo[3,4-c]pyridin-5-yl]urea], the IC50 was found to be 2.84 nM. With `Cc1cc(-n2ncc3cc(NC(=O)N[C@H]4CCN(Cc5c(F)cccc5F)C4)ncc32)ccn1` [Example 282, 1-[(3S)-1-(2,6-difluorobenzyl)pyrrolidin-3-yl]-3-[1-(2-methylpyridin-4-yl)-1H-pyrazolo[3,4-c]pyridin-5-yl]urea] the figure was 169 nM; with `Cc1cc(-n2ncc3cc(NC(=O)N[C@@H]4CCN(Cc5c(F)cccc5F)C4)ncc32)ccn1` [Example 283, 1-[(3R)-1-(2,6-difluorobenzyl)pyrrolidin-3-yl]-3-[1-(2-methylpyridin-4-yl)-1H-pyrazolo[3,4-c]pyridin-5-yl]urea], 0.323 nM; with `Cc1cc(-n2ncc3cc(NC(=O)N[C@H]4CNC[C@@H]4Oc4ccc(F)cc4)ncc32)ccn1` [Example 284, 1-[(3S,4S)-4-(4-fluorophenoxy)pyrrolidin-3-yl]-3-[1-(2-methylpyridin-4-yl)-1H-pyrazolo[3,4-c]pyridin-5-yl]urea], 24.1 nM. On to `Cc1cc(-n2ncc3cc(NC(=O)N[C@H]4CN(C)C[C@@H]4Oc4ccc(F)cc4)ncc32)ccn1` [Example 285, 1-[(3S,4S)-4-(4-fluorophenoxy)-1-methylpyrrolidin-3-yl]-3-[1-(2-methylpyridin-4-yl)-1H-pyrazolo[3,4-c]pyridin-5-yl]urea], for which the IC50 came out at 16.4 nM. With `Cc1cc(-n2ncc3cc(NC(=O)NC[C@@H]4CCNC4)ncc32)ccn1` [Example 286, 1-[1-(2-methylpyridin-4-yl)-1H-pyrazolo[3,4-c]pyridin-5-yl]-3-[(3R)-pyrrolidin-3-ylmethyl]urea] the figure was 23.4 nM. With `Cc1cc(-n2ncc3cc(NC(=O)NCC4(F)CNC4)ncc32)ccn1` [Example 287, 1-[(3-fluoroazetidin-3-yl)methyl]-3-[1-(2-methylpyridin-4-yl)-1H-pyrazolo[3,4-c]pyridin-5-yl]urea], the IC50 is 43.2 nM.

`Cc1cc(-n2ncc3cc(NC(=O)NC4CNCC(c5ccccc5)C4)ncc32)ccn1` (stereo not shown) [Example 288, 1-[1-(2-methylpyridin-4-yl)-1H-pyrazolo[3,4-c]pyridin-5-yl]-3-(5-phenylpiperidin-3-yl)urea]: the IC50 was found to be 10.5 nM. For `Cc1cc(-n2ncc3cc(NC(=O)NC[C@H]4CCN(C)C4)ncc32)ccn1` [Example 289, 1-[1-(2-methylpyridin-4-yl)-1H-pyrazolo[3,4-c]pyridin-5-yl]-3-{[(3R)-1-methylpyrrolidin-3-yl]methyl}urea], the IC50 was 36.6 nM.

With `Cc1cc(-n2ncc3cc(NC(=O)NC4CC(c5ccccc5)CN(C)C4)ncc32)ccn1` (stereo not shown) [Example 290, 1-(1-methyl-5-phenylpiperidin-3-yl)-3-[1-(2-methylpyridin-4-yl)-1H-pyrazolo[3,4-c]pyridin-5-yl]urea], the IC50 turned out to be 17.8 nM. For `CO[C@H]1CN(C)C[C@@H]1NC(=O)Nc1cc2cnn(-c3ccnc(C)c3)c2cn1` [Example 291, 1-[(3S,4S)-4-methoxy-1-methylpyrrolidin-3-yl]-3-[1-(2-methylpyridin-4-yl)-1H-pyrazolo[3,4-c]pyridin-5-yl]urea], the IC50 came to 46.4 nM.

Regarding `Cc1cc(-n2ncc3cc(NC(=O)N[C@@H](c4ccccc4)C(C)(C)O)ncc32)ccn1` [Example 292, (S)-1-(2-methyl-2-hydroxy-1-phenylpropyl)-3-(1-(2-methylpyridin-4-yl)-1H-pyrazolo[3,4-c]pyridin-5-yl)urea], the IC50 was 0.558 nM.

One may read the IC50 as the midpoint of a concentration-inhibition curve.

These data come from patent publication US9884048B2, “ERK inhibitors” (Merck Sharp & Dohme Corp., priority 2014, dated 2018).
